Data as given in patent publication US9376444.
Where two headings read alike, the source gives them in different places.

Details: rcm bond, Grubbs II, DCM, 40.0 °C

Question: For `C[C@@H]1/C=C/C[C@H](NC(=O)OC(C)(C)C)c2cn(COCC[Si](C)(C)C)c(n2)-c2ccc([N+](=O)[O-])cc2NC1=O`, which ring closure, yield of all isomers (from C=CC[C@H](NC(=O)OC(C)(C)C)c1cn(COCC[Si](C)(C)C)c(-c2ccc([N+](=O)[O-])cc2NC(=O)[C@H](C)C=C)n1, 1.016 mM) is on record?
Answer: 55.9%

Question: Which ring closure, yield of all isomers (from C=CC[C@H](NC(=O)OC(C)(C)C)c1cc(-c2ccc(NC(=O)OC)cc2NC(=O)[C@H](C)C=C)ccn1, 11.76 mM, 4.0 h) does the source give for `COC(=O)Nc1ccc2c(c1)NC(=O)[C@H](C)/C=C/C[C@H](NC(=O)OC(C)(C)C)c1cc-2ccn1` here?
Answer: 71.2%

Question: With `COC(=O)Nc1ccc2c(c1)NC(=O)[C@H](C)/C=C/C[C@H](NC(=O)OC(C)(C)C)c1nc-2cn1COCC[Si](C)(C)C` as the compound, how does the ring closure, yield of all isomers (from C=CC[C@H](NC(=O)OC(C)(C)C)c1nc(-c2ccc(NC(=O)OC)cc2NC(=O)[C@H](C)C=C)cn1COCC[Si](C)(C)C, 9.73 mM, 21.5 h) read?
Answer: 74%
